Data published in publication PMC5039532, “Design and Synthesis of Analogues of Marine Natural Product Galaxamide, an N-methylated Cyclic Pentapeptide, as Potential Anti-Tumor Agent in Vitro” (Marine Drugs, 2016).
Converted amounts (≈) assume the structure as drawn. Where two headings read alike, the source gives them in different places.

Columns and labels:
[1] = amide bond, 15-membered ring, PyBOP/DIEA, DCM, 0.7 mM, 25.0 °C
[2] = tested on: drug-resistant lung cancer cell line A549/DPP; format: cell-based, human; details: 48 h
Procedure: (§1) Lung cancer A549, drug-resistant lung cancer A549-DPP, human hepatocellular carcinoma HepG2 and hepatocellular carcinoma SMMC-7721 cells obtained from the China cell bank of the Institute of Biochemistry and were cultured in DMEM culture medium (DMEM, Corning, NY, USA) containing 10% fetal bovine serum (FBS, Hyclone, Logan, UT, USA), 1% penicillin-streptomycin and an antifungal agent in a 5% CO2 humidified atmosphere at 37 °C. The culture medium was replaced once in a day. Trypsin digestion method was adopted for cell propagation. Upon reaching 80%–90% confluence, the cells were rinsed twice with PBS. A certain amount of 0.25% trypsin digestion solution was then added and maintained for 3–5 min at 37 °C. Afterward, DMEM culture medium containing 10% fetal bovine serum was added to terminate the digestion. The cells were then blown well to form single cell suspensions.
(§2) The cell viability was determined by measuring the ability of cells to transform MTT (Genview, Houston, TX, USA) to a purple formazan dye. The cells were seeded in 96-well tissue culture plates at 2.5 × 10^3 cells/well for 24 h. The cells were then incubated with galaxamide and its analogues for 48 h. After incubation, 20 μL/well of MTT solution (5 mg/mL phosphate buffered saline) were added and incubated for 5 h. The medium was aspirated and replaced with 100 μL/well of DMSO to dissolve the formazan salt. The color intensity of the formazan solution, which reflects the cell growth condition, was measured at 570 nm using a microplate spectrophotometer (SpectroAma™ 250, Winooski, VT, USA).

[3] = tested on: hepatocellular carcinoma SMMC-7721 cells; format: cell-based, human; details: 48 h
Procedure: as §1, §2

[4] = tested on: Lung cancer cell line A549; format: cell-based, human; details: 48 h
Procedure: as §1, §2

[5] = tested on: human hepatocellular carcinoma HepG2; format: cell-based; details: 48 h
Procedure: as §1, §2

Row | IC50 Value A549-DPP [2] | IC50 Value SMMC-7721 [3] | IC50 Value A549 [4] | IC50 Value HepG2 [5] | SMILES | further results
1 |  |  |  |  | CC(C)C[C@H]1NC(=O)[C@@H](CC(C)C)NC(=O)[C@H](CC(C)C)N(C)C(=O)[C@@H](CC(C)C)NC(=O)[C@H](Cc2ccccc2)NC1=O [cyclo(Phe-D-Leu-N-Me-Leu-D-Leu-D-Leu)] | ring closure, yield after HPLC ([1]; from H-Phe-dLeu-MeLeu-dLeu-dLeu-OH?): 57.3%
2 |  |  |  |  | CC(C)C[C@H]1NC(=O)[C@H](Cc2ccccc2)NC(=O)[C@H](CC(C)C)N(C)C(=O)[C@@H](CC(C)C)NC(=O)[C@@H](CC(C)C)NC1=O [cyclo(Phe-D-Leu-D-Leu-D-Leu-N-Me-Leu)] | ring closure, yield after HPLC ([1]; from H-Phe-dLeu-dLeu-dLeu-MeLeu-OH?): 55.1%
3 | 20.43 µg/mL (≈ 33.3 µM) | 6.85 µg/mL (≈ 11.2 µM) | 5.18 µg/mL (≈ 8.44 µM) | 22.88 µg/mL (≈ 37.3 µM) | CC(C)C[C@@H]1NC(=O)[C@@H](Cc2ccccc2)NC(=O)[C@@H](CC(C)C)N(C)C(=O)[C@@H](CC(C)C)NC(=O)[C@@H](CC(C)C)NC1=O [Compound 25, cyclo(D-Phe-Leu-D-Leu-D-Leu-D-N-Me-Leu)] | 
4 | 16.15 µg/mL (≈ 26.3 µM) | 3.35 µg/mL (≈ 5.46 µM) | 7.41 µg/mL (≈ 12.1 µM) | 9.68 µg/mL (≈ 15.8 µM) | CC(C)C[C@@H]1NC(=O)[C@H](Cc2ccccc2)NC(=O)[C@H](CC(C)C)N(C)C(=O)[C@@H](CC(C)C)NC(=O)[C@H](CC(C)C)NC1=O [Compound 20, cyclo(Phe-Leu-Leu-D-Leu-N-Me-Leu)] | 
5 |  |  |  |  | CC(C)C[C@@H]1NC(=O)[C@@H](Cc2ccccc2)NC(=O)[C@@H](CC(C)C)NC(=O)[C@@H](CC(C)C)NC(=O)[C@H](CC(C)C)N(C)C1=O [cyclo(D-Phe-Leu-N-Me-Leu-D-Leu-D-Leu)] | ring closure, yield after HPLC ([1]; from H-dPhe-Leu-MeLeu-dLeu-dLeu-OH?): 61.5%
6 | 11.41 µg/mL (≈ 18.6 µM) | 2.77 µg/mL (≈ 4.51 µM) | 5.17 µg/mL (≈ 8.42 µM) | 18.82 µg/mL (≈ 30.7 µM) | CC(C)C[C@@H]1NC(=O)[C@H](Cc2ccccc2)NC(=O)[C@@H](CC(C)C)NC(=O)[C@@H](CC(C)C)NC(=O)[C@@H](CC(C)C)N(C)C1=O [Compound 3, cyclo(Phe-Leu-D-N-Me-Leu-D-Leu-D-Leu)] | 
7 | 23.61 µg/mL (≈ 37.6 µM) | 2.74 µg/mL (≈ 4.36 µM) | 6.89 µg/mL (≈ 11 µM) | 5.23 µg/mL (≈ 8.33 µM) | CC(C)C[C@H]1NC(=O)[C@@H](Cc2ccccc2)NC(=O)[C@H](CC(C)C)N(C)C(=O)[C@@H](CC(C)C)NC(=O)[C@H](CC(C)C)N(C)C1=O [Compound 5, cyclo(D-Phe-D-Leu-N-Me-Leu-D-Leu-N-Me-Leu)] | 
8 |  |  |  |  | CC(C)C[C@@H]1NC(=O)[C@H](CC(C)C)N(C)C(=O)[C@H](CC(C)C)NC(=O)[C@@H](CC(C)C)N(C)C(=O)[C@@H](Cc2ccccc2)NC1=O [cyclo(D-Phe-D-N-Me-Leu-Leu-N-Me-Leu-Leu)] | ring closure, yield after HPLC ([1]; from H-dPhe-dMeLeu-Leu-MeLeu-Leu-OH?): 45.5%
9 |  |  |  |  | CC(C)C[C@@H]1NC(=O)[C@@H](CC(C)C)N(C)C(=O)[C@H](CC(C)C)NC(=O)[C@@H](Cc2ccccc2)NC(=O)[C@@H](CC(C)C)NC1=O [cyclo(D-Phe-Leu-D-N-Me-Leu-Leu-D-Leu)] | ring closure, yield after HPLC ([1]; from H-dPhe-Leu-dMeLeu-Leu-dLeu-OH?): 53.8%
10 |  |  |  |  | CC(C)C[C@@H]1NC(=O)[C@H](Cc2ccccc2)NC(=O)[C@@H](CC(C)C)N(C)C(=O)[C@H](CC(C)C)NC(=O)[C@H](CC(C)C)NC1=O [cyclo(Phe-Leu-Leu-Leu-D-N-Me-Leu)] | ring closure, yield after HPLC ([1]; from H-Phe-Leu-Leu-Leu-dMeLeu-OH?): 66.4%
11 |  |  |  |  | CC(C)C[C@@H]1NC(=O)[C@H](CC(C)C)N(C)C(=O)[C@@H](Cc2ccccc2)NC(=O)[C@@H](CC(C)C)N(C)C(=O)[C@H](CC(C)C)NC1=O [cyclo(D-Phe-N-Me-Leu-Leu-Leu-D-N-Me-Leu)] | ring closure, yield after HPLC ([1]; from H-dPhe-MeLeu-Leu-Leu-dMeLeu-OH?): 45.1%
12 | 18.6 µg/mL (≈ 30.3 µM) | 8.21 µg/mL (≈ 13.4 µM) | 6.47 µg/mL (≈ 10.5 µM) | 15.3 µg/mL (≈ 24.9 µM) | CC(C)C[C@H]1NC(=O)[C@H](Cc2ccccc2)NC(=O)[C@H](CC(C)C)N(C)C(=O)[C@@H](CC(C)C)NC(=O)[C@@H](CC(C)C)NC1=O [Compound 21, cyclo(Phe-D-Leu-D-Leu-D-Leu-N-Me-Leu)] | 
13 |  |  |  |  | CC(C)C[C@H]1NC(=O)[C@@H](Cc2ccccc2)NC(=O)[C@H](CC(C)C)N(C)C(=O)[C@@H](CC(C)C)NC(=O)[C@H](CC(C)C)N(C)C1=O [cyclo(D-Phe-D-Leu-N-Me-Leu-D-Leu-N-Me-Leu)] | ring closure, yield after HPLC ([1]; from H-dPhe-dLeu-MeLeu-dLeu-MeLeu-OH?): 53.9%
14 |  |  |  |  | CC(C)C[C@@H]1NC(=O)[C@H](CC(C)C)NC(=O)[C@@H](Cc2ccccc2)NC(=O)[C@H](CC(C)C)N(C)C(=O)[C@@H](CC(C)C)NC1=O [cyclo(D-Phe-Leu-Leu-D-Leu-N-Me-Leu)] | ring closure, yield after HPLC ([1]; from H-dPhe-Leu-Leu-dLeu-MeLeu-OH?): 65.4%
15 |  |  |  |  | CC(C)C[C@@H]1NC(=O)[C@H](Cc2ccccc2)NC(=O)[C@@H](CC(C)C)NC(=O)[C@@H](CC(C)C)NC(=O)[C@@H](CC(C)C)N(C)C1=O [cyclo(Phe-Leu-D-N-Me-Leu-D-Leu-D-Leu)] | ring closure, yield after HPLC ([1]; from H-Phe-Leu-dMeLeu-dLeu-dLeu-OH?): 51.7%
16 | 17.73 µg/mL (≈ 28.2 µM) | 2.7 µg/mL (≈ 4.3 µM) | 5.21 µg/mL (≈ 8.3 µM) | 4.25 µg/mL (≈ 6.77 µM) | CC(C)C[C@@H]1NC(=O)[C@H](CC(C)C)N(C)C(=O)[C@H](CC(C)C)NC(=O)[C@@H](CC(C)C)N(C)C(=O)[C@@H](Cc2ccccc2)NC1=O [Compound 19, cyclo(D-Phe-D-N-Me-Leu-Leu-N-Me-Leu-Leu)] | 
17 | 19.71 µg/mL (≈ 32.1 µM) | 1.53 µg/mL (≈ 2.49 µM) | 8.89 µg/mL (≈ 14.5 µM) | 16.58 µg/mL (≈ 27 µM) | CC(C)C[C@@H]1NC(=O)[C@@H](CC(C)C)N(C)C(=O)[C@H](CC(C)C)NC(=O)[C@@H](Cc2ccccc2)NC(=O)[C@@H](CC(C)C)NC1=O [Compound 4, cyclo(D-Phe-Leu-D-N-Me-Leu-Leu-D-Leu)] | 
18 |  |  |  |  | CC(C)C[C@@H]1NC(=O)[C@@H](Cc2ccccc2)NC(=O)[C@@H](CC(C)C)N(C)C(=O)[C@@H](CC(C)C)NC(=O)[C@@H](CC(C)C)NC1=O [cyclo(D-Phe-Leu-D-Leu-D-Leu-D-N-Me-Leu)] | ring closure, yield after HPLC ([1]; from H-dPhe-Leu-dLeu-dLeu-dMeLeu-OH?): 50%
19 | 9.13 µg/mL (≈ 14.9 µM) | 4.32 µg/mL (≈ 7.04 µM) | 5.85 µg/mL (≈ 9.53 µM) | 26.62 µg/mL (≈ 43.4 µM) | CC(C)C[C@@H]1NC(=O)[C@@H](Cc2ccccc2)NC(=O)[C@H](CC(C)C)N(C)C(=O)[C@H](CC(C)C)NC(=O)[C@@H](CC(C)C)NC1=O [Compound 23, cyclo(D-Phe-Leu-D-Leu-Leu-N-Me-Leu)] | 
20 | 15.01 µg/mL (≈ 24.5 µM) | 5.48 µg/mL (≈ 8.93 µM) | 5.27 µg/mL (≈ 8.59 µM) | 7.76 µg/mL (≈ 12.6 µM) | CC(C)C[C@@H]1NC(=O)[C@@H](Cc2ccccc2)NC(=O)[C@@H](CC(C)C)NC(=O)[C@@H](CC(C)C)NC(=O)[C@H](CC(C)C)N(C)C1=O [Compound 2, cyclo(D-Phe-Leu-N-Me-Leu-D-Leu-D-Leu)] | 
21 |  |  |  |  | CC(C)C[C@@H]1NC(=O)[C@@H](Cc2ccccc2)NC(=O)[C@H](CC(C)C)N(C)C(=O)[C@H](CC(C)C)NC(=O)[C@@H](CC(C)C)NC1=O [cyclo(D-Phe-Leu-D-Leu-Leu-N-Me-Leu)] | ring closure, yield after HPLC ([1]; from H-dPhe-Leu-dLeu-Leu-MeLeu-OH?): 48.5%
22 | 11.33 µg/mL (≈ 18 µM) | 6.65 µg/mL (≈ 10.6 µM) | 4.27 µg/mL (≈ 6.8 µM) | 7.12 µg/mL (≈ 11.3 µM) | CC(C)C[C@@H]1NC(=O)[C@H](CC(C)C)N(C)C(=O)[C@@H](Cc2ccccc2)NC(=O)[C@@H](CC(C)C)N(C)C(=O)[C@H](CC(C)C)NC1=O [Compound 26, cyclo(D-Phe-N-Me-Leu-Leu-Leu-D-N-Me-Leu)] | 
23 | 9.26 µg/mL (≈ 15.1 µM) | 7.04 µg/mL (≈ 11.5 µM) | 3.45 µg/mL (≈ 5.62 µM) | 7.92 µg/mL (≈ 12.9 µM) | CC(C)C[C@@H]1NC(=O)[C@H](Cc2ccccc2)NC(=O)[C@@H](CC(C)C)N(C)C(=O)[C@H](CC(C)C)NC(=O)[C@H](CC(C)C)NC1=O [Compound 24, cyclo(Phe-Leu-Leu-Leu-D-N-Me-Leu)] | 
24 |  |  |  |  | CC(C)C[C@@H]1NC(=O)[C@H](Cc2ccccc2)NC(=O)[C@H](CC(C)C)N(C)C(=O)[C@@H](CC(C)C)NC(=O)[C@H](CC(C)C)NC1=O [cyclo(Phe-Leu-Leu-D-Leu-N-Me-Leu)] | ring closure, yield after HPLC ([1]; from H-Phe-Leu-Leu-dLeu-MeLeu-OH?): 46.1%
